Measurements from patent US11999727B2 (Tango Therapeutics, Inc., priority 2020, dated 2024).

What was measured:
[1] = system: HAP1 MTAP-intact cell line; assay: SDMA in-cell western assay, HAP1 MTAP-intact; format: cell-based; settings: Homo sapiens, HAP1, SDMA in-cell western, HAP1 MTAP-intact; read-out: MTAP HAP1 intact IC50
Summary of the method: (§1)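 Isogenic HAP1 pair: the MTAP-intact line expresses endogenous MTAP, and the deleted line is MTAP-null. Symmetric dimethylarginine was detected by in-cell western and IC50 values derived for each line.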

[2] = system: HAP1 MTAP-deleted cell line; assay: SDMA in-cell western assay, HAP1 MTAP-deleted; format: cell-based; settings: for IC50: Homo sapiens, HAP1, SDMA in-cell western, HAP1 MTAP-deleted, read-out: HAP1 MTAP deleted IC50; for MTAP intact/deleted ratio: IC50 ratio HAP1 MTAP-intact / HAP1 MTAP-deleted, SDMA in-cell western
Summary of the method: as §1

[3] = system: HAP1 MTAP-deleted cell line; assay: Viability assay, MTAP-deleted cell line; format: cell-based; settings: Homo sapiens, HAP1, viability assay, HAP1 MTAP-deleted; read-out: HAP1 MTAP deleted viability
Text: Table 1 additionally indicates IC50 values in a viability assay for the MTAP-deleted cell line (column 10), indicating the effect of treatment with compound on cell survival.

PRMT5 [4] = molecular target: T1, PRMT5 (Homo sapiens, UniProt O14744); assay: PRMT5 biochemical IC50 assay with SAM as cofactor; settings: PRMT5, SAM as cofactor; read-out: SAM IC50
T1 construct: purchased Viva (custom protein)
T1 sequence (O14744 whole entry): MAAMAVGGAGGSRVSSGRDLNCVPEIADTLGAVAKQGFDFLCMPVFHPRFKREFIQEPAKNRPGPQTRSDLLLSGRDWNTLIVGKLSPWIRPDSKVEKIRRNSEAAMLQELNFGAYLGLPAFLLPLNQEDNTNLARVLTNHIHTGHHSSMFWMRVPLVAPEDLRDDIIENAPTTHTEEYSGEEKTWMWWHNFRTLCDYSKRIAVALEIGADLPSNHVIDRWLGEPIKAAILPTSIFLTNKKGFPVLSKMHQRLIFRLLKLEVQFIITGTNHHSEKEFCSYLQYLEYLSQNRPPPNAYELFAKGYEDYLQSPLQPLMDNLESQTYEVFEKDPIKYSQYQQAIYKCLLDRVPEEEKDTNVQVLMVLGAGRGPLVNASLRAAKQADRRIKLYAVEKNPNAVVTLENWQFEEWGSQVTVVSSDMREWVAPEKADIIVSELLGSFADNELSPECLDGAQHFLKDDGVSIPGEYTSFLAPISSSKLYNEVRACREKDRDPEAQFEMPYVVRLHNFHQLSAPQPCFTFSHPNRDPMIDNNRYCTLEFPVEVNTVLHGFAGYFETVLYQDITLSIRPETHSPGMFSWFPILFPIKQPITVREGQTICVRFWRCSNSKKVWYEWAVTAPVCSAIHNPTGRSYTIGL
T1 sequence (Q9BQA1 whole entry partner): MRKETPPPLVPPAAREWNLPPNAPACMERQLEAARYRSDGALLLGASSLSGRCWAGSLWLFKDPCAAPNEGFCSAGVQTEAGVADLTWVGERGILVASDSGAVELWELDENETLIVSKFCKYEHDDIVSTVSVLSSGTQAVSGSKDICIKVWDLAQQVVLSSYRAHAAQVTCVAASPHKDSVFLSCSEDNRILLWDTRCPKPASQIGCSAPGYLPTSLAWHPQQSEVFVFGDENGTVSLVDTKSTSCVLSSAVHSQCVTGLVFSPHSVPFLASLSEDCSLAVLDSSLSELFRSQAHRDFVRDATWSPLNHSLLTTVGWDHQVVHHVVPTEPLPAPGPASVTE

PRMT5 [5] = molecular target: T1, PRMT5; assay: PRMT5 biochemical IC50 assay with no cofactor; settings: PRMT5, no cofactor; read-out: No Cofactor/rel IC50
Text: Table 1 indicates IC50 values (μM) against PRMT5 for exemplary compounds in the presence of SAM as cofactor, with no cofactor, and with MTA as cofactor, respectively (columns 4-6). […] Ki values can be calculated from the IC50 values as described in the Examples section. As detailed in the Examples section, for the assay performed in the presence of SAM, IC50=Ki×1.5 (Ki=IC50/1.5).

PRMT5 [6] = molecular target: T1, PRMT5; assay: PRMT5 biochemical IC50 assay with MTA as cofactor; settings: PRMT5, MTA as cofactor; read-out: MTA IC50

Row | IC50 [1] | IC50 [2] | IC50 (PRMT5 [4]) | IC50 (PRMT5 [5]) | IC50 (PRMT5 [6]) | SMILES | MTAP intact/deleted ratio [2] | IC50 [3]
1 | > 1000 nM | < 100 nM | 50 to 500 nM | 50 to 500 nM | < 50 nM | C[C@@H]1CC[C@@H](c2ccc(-c3nccs3)cc2)N(C(=O)C(=O)Nc2cncc(C(N)=O)c2)C1 (single isomer, unassigned) [Compound 783] | A (an IC50 ratio greater than or equal to 10 fold) | 1000 to 10000 nM
2 | > 1000 nM | < 100 nM | 50 to 500 nM | < 50 nM | < 50 nM | CCc1cc(NC(=O)C(=O)N2C[C@@H](C)CC[C@@H]2c2ccc(C)nc2)cnc1N (single isomer, unassigned) [Compound 784] | A (an IC50 ratio greater than or equal to 10 fold) | < 1000 nM
3 | 100 to 1000 nM | < 100 nM | 50 to 500 nM | < 50 nM | < 50 nM | Cc1cc(NC(=O)C(=O)N2C[C@H](C)CC[C@H]2c2cccc3[nH]ncc23)cnc1N (single isomer, unassigned) [Compound 785] | A (an IC50 ratio greater than or equal to 10 fold) | < 1000 nM
4 | 100 to 1000 nM | < 100 nM | 50 to 500 nM | < 50 nM | < 50 nM | Cc1cc(NC(=O)C(=O)N2C[C@@H](C)C(F)(F)C[C@@H]2c2ccc(F)cc2)cnc1N (single isomer, unassigned) [Compound 786] | A (an IC50 ratio greater than or equal to 10 fold) | < 1000 nM
5 | > 1000 nM | > 1000 nM | > 500 nM | > 500 nM | > 500 nM | C[C@@H]1CC[C@@H](c2ccc3[nH]ncc3n2)N(C(=O)C(=O)Nc2cncc(C(N)=O)c2)C1 (single isomer, unassigned) [Compound 787] | C (an IC50 ratio of less than 3 fold) | > 10000 nM
6 | 100 to 1000 nM | < 100 nM | 50 to 500 nM | < 50 nM | < 50 nM | Cc1cc(NC(=O)C(=O)N2C[C@H](C)CC[C@H]2c2ccc3[nH]ncc3n2)cnc1N (single isomer, unassigned) [Compound 788] | A (an IC50 ratio greater than or equal to 10 fold) | < 1000 nM
7 | > 1000 nM | > 1000 nM | > 500 nM | > 500 nM | > 500 nM | Cc1cc(NC(=O)C(=O)N2C[C@@H](C)CC[C@@H]2c2ccn(-c3cc[nH]n3)n2)cnc1N (single isomer, unassigned) [Compound 789] | B (an IC50 ratio greater than or equal to 3 fold but lower than 10 fold) | > 10000 nM
8 | > 1000 nM | 100 to 1000 nM | > 500 nM | > 500 nM | > 500 nM | Cc1cc(NC(=O)C(=O)N2C[C@@H](C)CC[C@@H]2c2cccc3[nH]ncc23)cnc1N (single isomer, unassigned) [Compound 790] | A (an IC50 ratio greater than or equal to 10 fold) | > 10000 nM
9 | > 1000 nM | < 100 nM | 50 to 500 nM | < 50 nM | < 50 nM | C[C@@H]1CC[C@@H](c2ccc(C(N)=O)s2)N(C(=O)C(=O)Nc2cncc(C(N)=O)c2)C1 (single isomer, unassigned) [Compound 792] | A (an IC50 ratio greater than or equal to 10 fold) | 1000 to 10000 nM
10 | > 1000 nM | < 100 nM | 50 to 500 nM | < 50 nM | < 50 nM | COc1ncc(NC(=O)C(=O)N2C[C@H](C)CC[C@H]2c2ccc3[nH]cnc3c2)cc1C(N)=O (single isomer, unassigned) [Compound 794] | A (an IC50 ratio greater than or equal to 10 fold) | < 1000 nM
11 | > 1000 nM | < 100 nM | 50 to 500 nM | 50 to 500 nM | < 50 nM | C[C@@]1(F)CC[C@H](c2ccccc2)N(C(=O)C(=O)Nc2cncc(C(N)=O)c2)C1 (single isomer, unassigned) [Compound 795, 5-(2-(5-fluoro-5-methyl-2-phenylpiperidin-1-yl)-2-oxoacetamido)nicotinamide] | A (an IC50 ratio greater than or equal to 10 fold) | 1000 to 10000 nM
12 | > 1000 nM | > 1000 nM | > 500 nM | > 500 nM | > 500 nM | C[C@H]1CC[C@H](c2ccc(C(N)=O)s2)N(C(=O)C(=O)Nc2cncc(C(N)=O)c2)C1 (single isomer, unassigned) [Compound 796] | C (an IC50 ratio of less than 3 fold) | > 10000 nM
13 | > 1000 nM | < 100 nM | 50 to 500 nM | < 50 nM | < 50 nM | COc1ncc(NC(=O)C(=O)N2C[C@@H](C)CC[C@@H]2c2ccc3sc(C)nc3c2)cc1C(N)=O (single isomer, unassigned) [Compound 797] | A (an IC50 ratio greater than or equal to 10 fold) | < 1000 nM
14 | > 1000 nM | > 1000 nM | > 500 nM | > 500 nM | > 500 nM | C[C@]1(F)CC[C@@H](c2ccccc2)N(C(=O)C(=O)Nc2cncc(C(N)=O)c2)C1 (single isomer, unassigned) [Compound 798, 5-(2-(5-fluoro-5-methyl-2-phenylpiperidin-1-yl)-2-oxoacetamido)nicotinamide] | C (an IC50 ratio of less than 3 fold) | > 10000 nM
15 | > 1000 nM | > 1000 nM | > 500 nM | > 500 nM | > 500 nM | COc1ncc(NC(=O)C(=O)N2C[C@H](C)CC[C@H]2c2ccc(-c3nccs3)cc2)cc1C(N)=O (single isomer, unassigned) [Compound 799] | C (an IC50 ratio of less than 3 fold) | > 10000 nM
16 | 100 to 1000 nM | < 100 nM | 50 to 500 nM | < 50 nM | < 50 nM | CCc1cc(NC(=O)C(=O)N2C[C@@H](C)CC[C@@H]2c2ccc3sc(C)nc3c2)cnc1N (single isomer, unassigned) [Compound 800] | A (an IC50 ratio greater than or equal to 10 fold) | < 1000 nM
17 | > 1000 nM | > 1000 nM | > 500 nM | > 500 nM | > 500 nM | CCc1cc(NC(=O)C(=O)N2C[C@H](C)CC[C@H]2c2ccc3sc(C)nc3c2)cnc1N (single isomer, unassigned) [Compound 801] | B (an IC50 ratio greater than or equal to 3 fold but lower than 10 fold) | > 10000 nM
18 | > 1000 nM | > 1000 nM | > 500 nM | > 500 nM | > 500 nM | Cc1cc(NC(=O)C(=O)N2C[C@H](C)CC[C@H]2c2ccc(CO)cc2)cnc1N (single isomer, unassigned) [Compound 802] | B (an IC50 ratio greater than or equal to 3 fold but lower than 10 fold) | > 10000 nM
19 | > 1000 nM | > 1000 nM | > 500 nM | > 500 nM | > 500 nM | C[C@@H]1CC[C@@H](c2ccc3[nH]c(=O)ccc3c2)N(C(=O)C(=O)Nc2cncc(C(N)=O)c2)C1 (single isomer, unassigned) [Compound 804] | C (an IC50 ratio of less than 3 fold) | > 10000 nM
20 | > 1000 nM | 100 to 1000 nM | > 500 nM | > 500 nM | > 500 nM | COc1ncc(NC(=O)C(=O)N2C[C@@H](C)CC[C@@H]2c2ccc3[nH]cnc3c2)cc1C(N)=O (single isomer, unassigned) [Compound 805] | A (an IC50 ratio greater than or equal to 10 fold) | > 10000 nM
21 | 100 to 1000 nM | < 100 nM | 50 to 500 nM | < 50 nM | < 50 nM | Cc1cc(NC(=O)C(=O)N2C[C@@H](C)CC[C@@H]2c2ccc(CO)cc2)cnc1N (single isomer, unassigned) [Compound 806] | A (an IC50 ratio greater than or equal to 10 fold) | < 1000 nM
22 | 100 to 1000 nM | < 100 nM | 50 to 500 nM | < 50 nM | < 50 nM | COc1ncc(NC(=O)C(=O)N2C[C@@H](C)CC[C@@H]2c2ccc3[nH]c(=O)ccc3c2)cc1C(N)=O (single isomer, unassigned) [Compound 807] | A (an IC50 ratio greater than or equal to 10 fold) | < 1000 nM
